In patent publication US20220001083A1, “METHOD FOR THE MODIFICATION OF A DEVICE SURFACE BY GRAFTING A CD31-DERIVED PEPTIDE ONTO THE SURFACE OF SAID DEVICE” (BALT EXTRUSION, priority 2018, published 2022):

Tested on: erythrocytes of human peripheral whole blood
Test: hemolysis assay
Type: cell-based
Conditions: photograph of the microplate before absorbance reading
Method: The hemolysis assay is a required biocompatibility test for all blood-contacting devices. […] The hemolysis assay protocol we used was adapted from the one used by Bae and coworkers (Bae, I.-H., Park, I.-K., Park, D. S., Lee, H. and Jeong, M. H. 2012. Journal of Materials Science: Materials in Medicine 23 (5): 1259-1269.) as detailed below.
Coated and bare CoCr disks were placed in the wells of a 96-well plate and sterilized by a ten minute incubation in 70° ethanol. The disks were rinsed several times in water prior to a final wash in physiological saline solution (0.9% NaCl). […]
Disk-free wells were used as negative controls and 1% Triton X-100 (which causes the lysis of most erythrocytes through the dissolution of their plasma cell membrane) was added in blood-containing positive control wells. […] Absorbance was measured at 540 nm in a plate reader spectrophotometer (Infinite 200 PRO, TECAN). 540 nm corresponds to the absorbance peak of free hemoglobin, which is released by hemolysis from the erythrocytes. The value of the absorbance at 540 nm is therefore directly proportional to the extent of hemolysis caused by the sample disks in the experimental wells. […]
For each experiment, these observations were quantified by absorbance reading at 540 nm, and the measurements were normalized using the values obtained with the positive and negative controls, according to the following formula: […]

Triton X-100
macroscopic colour of platelet-poor plasma (hemolysis): effective hemolysis
